IC50 data for 24 compounds are collected here from patent US11685732B2, “MYST family histone acetyltransferase inhibitors” (Epizyme, Inc., priority 2017, dated 2023).

In assay [1] the target is KAT-5 (Homo sapiens (Human), UniProt Q92993). Kind of assay: KAT-5 biochemical inhibition assay (SAMDI mass spectrometry). In outline: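 KAT-5 at 9 nM final was preincubated with serially diluted compound (2% DMSO) in 50 mM Tris pH 8.0 with 1 mM DTT. Reaction ran with 1 μM peptide substrate and 0.5 μM acetyl-CoA for 90 min at 25° C, was quenched with 0.5% formic acid, and was read by SAMDI-TOF mass spectrometry.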

In assay [2] the target is KAT-6A (Homo sapiens (Human), UniProt Q92794). Kind of assay: KAT-6A biochemical inhibition assay (SAMDI mass spectrometry). In outline:
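Enzyme (12.5 nM final) pre-incubated with serially diluted compounds (2% DMSO final) in 50 mM Tris pH 8.0 with Tween20, gelatin and 1 mM DTT. Reaction started with 1 μM peptide substrate and 1 μM acetyl-CoA, run 90 min at 25 °C, quenched with 0.5% formic acid, read by SAMDI-TOF mass spectrometry; IC50 derived.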

In assay [3] the target is KAT-7 (Homo sapiens (Human), UniProt O95251). The assay can be described thus: KAT-7 biochemical inhibition assay (SAMDI mass spectrometry). Put shortly: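 KAT-7 (6 nM) was pre-incubated with serially diluted compound (2% DMSO) in Tris pH 8.0 with DTT. Reaction with 1 μM peptide and 2 μM acetyl-CoA ran 120 min at 25 °C and was stopped with 0.5% formic acid. Acetylation was read by SAMDI-TOF mass spectrometry to give IC50.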

Assay [4] concerns the target KAT-8 (Homo sapiens (Human), UniProt Q9H7Z6). Kind of assay: KAT-8 biochemical inhibition assay (SAMDI mass spectrometry). In outline: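 Compounds in 2% DMSO pre-incubated with 12.5 nM enzyme in 50 mM Tris pH 8.0 with Tween20, gelatin and 1 mM DTT. Then 1 μM peptide and 5 μM acetyl-CoA were added, 90 min at 25 °C; formic acid stop and SAMDI-TOF mass spectrometry for IC50.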

Where two headings read alike, the source gives them in different places.

Sequence of KAT-6A (Q92794 other isoform, or with tags, fused parts or gaps): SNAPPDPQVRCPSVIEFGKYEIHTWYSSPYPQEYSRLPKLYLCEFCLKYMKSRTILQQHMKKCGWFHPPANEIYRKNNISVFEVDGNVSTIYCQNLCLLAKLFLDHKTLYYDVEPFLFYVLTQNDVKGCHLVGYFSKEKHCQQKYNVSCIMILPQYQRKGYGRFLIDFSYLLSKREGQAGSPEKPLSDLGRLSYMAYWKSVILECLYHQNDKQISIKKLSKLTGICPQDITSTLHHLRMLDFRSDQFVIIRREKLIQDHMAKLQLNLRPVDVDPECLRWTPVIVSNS
Sequence of KAT-7 (O95251 other isoform, or with tags, fused parts or gaps): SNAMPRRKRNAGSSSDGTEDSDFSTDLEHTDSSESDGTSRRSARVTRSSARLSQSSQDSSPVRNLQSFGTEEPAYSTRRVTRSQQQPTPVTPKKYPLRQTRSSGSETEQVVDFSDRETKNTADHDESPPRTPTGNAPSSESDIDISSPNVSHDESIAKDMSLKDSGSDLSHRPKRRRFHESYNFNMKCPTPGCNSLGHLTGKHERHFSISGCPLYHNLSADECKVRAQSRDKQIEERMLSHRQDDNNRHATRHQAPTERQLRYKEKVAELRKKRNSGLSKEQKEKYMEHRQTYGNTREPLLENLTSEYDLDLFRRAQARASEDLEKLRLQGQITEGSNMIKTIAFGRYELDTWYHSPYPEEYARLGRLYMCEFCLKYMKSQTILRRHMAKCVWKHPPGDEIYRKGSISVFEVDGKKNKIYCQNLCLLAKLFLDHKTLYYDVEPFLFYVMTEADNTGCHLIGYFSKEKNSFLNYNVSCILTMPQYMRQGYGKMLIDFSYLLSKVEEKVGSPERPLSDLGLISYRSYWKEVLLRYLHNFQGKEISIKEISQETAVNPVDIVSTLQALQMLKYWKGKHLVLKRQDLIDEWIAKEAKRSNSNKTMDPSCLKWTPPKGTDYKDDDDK
Sequence of KAT-8 (Q9H7Z6 other isoform, or with tags, fused parts or gaps): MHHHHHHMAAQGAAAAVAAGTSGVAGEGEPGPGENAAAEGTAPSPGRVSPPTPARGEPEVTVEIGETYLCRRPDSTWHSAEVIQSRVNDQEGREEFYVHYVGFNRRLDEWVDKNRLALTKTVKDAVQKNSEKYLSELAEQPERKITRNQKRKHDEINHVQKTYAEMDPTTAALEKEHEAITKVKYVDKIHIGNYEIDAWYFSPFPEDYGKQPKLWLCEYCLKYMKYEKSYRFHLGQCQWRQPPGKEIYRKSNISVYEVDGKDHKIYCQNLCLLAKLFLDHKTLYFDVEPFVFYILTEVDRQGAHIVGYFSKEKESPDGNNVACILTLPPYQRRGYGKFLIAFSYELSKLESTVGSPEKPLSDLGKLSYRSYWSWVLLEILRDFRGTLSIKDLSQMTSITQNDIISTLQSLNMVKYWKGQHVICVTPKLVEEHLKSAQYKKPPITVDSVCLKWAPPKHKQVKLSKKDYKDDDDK
Sequence of KAT-5 (Q92993 other isoform, or with tags, fused parts or gaps): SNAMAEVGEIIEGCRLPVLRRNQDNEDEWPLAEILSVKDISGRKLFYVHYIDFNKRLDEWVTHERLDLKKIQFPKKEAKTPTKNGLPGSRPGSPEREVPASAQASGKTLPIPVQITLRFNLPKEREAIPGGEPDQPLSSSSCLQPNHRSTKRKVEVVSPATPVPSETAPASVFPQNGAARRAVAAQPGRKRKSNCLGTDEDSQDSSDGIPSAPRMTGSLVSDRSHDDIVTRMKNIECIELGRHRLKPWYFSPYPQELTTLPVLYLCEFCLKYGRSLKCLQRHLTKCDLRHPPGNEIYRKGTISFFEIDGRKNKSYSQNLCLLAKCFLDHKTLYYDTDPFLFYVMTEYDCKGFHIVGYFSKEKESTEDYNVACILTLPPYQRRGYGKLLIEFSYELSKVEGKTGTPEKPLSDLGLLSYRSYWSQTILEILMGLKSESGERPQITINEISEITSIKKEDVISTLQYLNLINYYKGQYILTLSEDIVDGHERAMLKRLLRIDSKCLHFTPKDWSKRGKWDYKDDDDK

Take `CN(C)C(=O)N(C)[C@H]1CC[C@@H](CS(=O)(=O)NNC(=O)c2cc(-c3cn(C)cn3)cc(Cl)c2F)CC1` [Compound I-365]: the IC50 in assay [1] is less than 10 µM; in assay [2], less than 10 µM; in assay [3], less than 10 µM; in assay [4], 10 to 50 µM.

Regarding `CN(C)C(=O)N(C)[C@H]1CC[C@H](CS(=O)(=O)NNC(=O)c2cc(-c3cn(C)cn3)cc(Cl)c2F)CC1` [Compound I-366], the IC50 in assay [1] was less than 10 µM; in assay [2], less than 10 µM; in assay [3], less than 10 µM; in assay [4], 10 to 50 µM.

Take `CC(=O)Nc1cccc(S(=O)(=O)NNC(=O)c2cc(-c3cn(C)cn3)cc(Cl)c2F)c1` [Compound I-367]: the IC50 in assay [1] was less than 10 µM; in assay [2], less than 10 µM; in assay [3] it was less than 10 µM; in assay [4], 10 to 50 µM.

Regarding `COCCOc1cccc(S(=O)(=O)NNC(=O)c2cc(-c3cn(C)cn3)cc(Cl)c2F)c1` [Compound I-368], the IC50 in assay [1] is less than 10 µM; in assay [2], less than 10 µM; in assay [3], less than 10 µM; in assay [4], 10 to 50 µM.

For the compound `COCCOc1ccc(S(=O)(=O)NNC(=O)c2cc(-c3cn(C)cn3)cc(Cl)c2F)cc1` [Compound I-369], the IC50 in assay [1] is less than 10 µM; in assay [2], 10 to 50 µM; in assay [3], less than 10 µM; in assay [4] it was 10 to 50 µM.

In the case of `CC(=O)Nc1ccccc1S(=O)(=O)NNC(=O)c1cc(-c2cn(C)cn2)cc(Cl)c1F` [Compound I-370], the IC50 is 10 to 50 µM in assay [1], less than 10 µM in assay [2], less than 10 µM in assay [3] and 10 to 50 µM in assay [4].

Consider `Cn1cnc(-c2cc(Cl)c(F)c(C(=O)NNS(=O)(=O)C[C@H]3CCOC3)c2)c1` [Compound I-371], for which the IC50 in assay [1] was less than 10 µM; in assay [2], less than 10 µM; in assay [3] it was less than 10 µM; in assay [4] it was 10 to 50 µM.

Consider `Cn1cnc(-c2cc(Cl)c(F)c(C(=O)NNS(=O)(=O)C[C@@H]3CCOC3)c2)c1` [Compound I-372], for which the IC50 was less than 10 µM in assay [1], 10 to 50 µM in assay [2], less than 10 µM in assay [3] and 10 to 50 µM in assay [4].

As to `COCCc1c(-c2cc(Cl)c(F)c(C(=O)NNS(=O)(=O)CC3CCOCC3)c2)cnn1C` [Compound I-373], the IC50 in assay [1], in assay [2], in assay [3] and in assay [4] was 10 to 50 µM throughout.

Take `Cn1cnc(-c2cc(Cl)c(F)c(C(=O)NNS(=O)(=O)c3cccnc3OCc3ccccc3)c2)c1` [Compound I-374]: the IC50 in assay [1] was less than 10 µM; in assay [2] it was less than 10 µM; in assay [3], less than 10 µM; in assay [4], 10 to 50 µM.

For `Cn1cnc(-c2cc(Cl)c(F)c(C(=O)NNS(=O)(=O)c3cccc(OCc4ccccc4)n3)c2)c1` [Compound I-375], the IC50 in assay [1] is less than 10 µM; in assay [2], less than 10 µM; in assay [3], less than 10 µM; in assay [4], 10 to 50 µM.

Consider `CN(C(=O)OC(C)(C)C)c1ccc(S(=O)(=O)NNC(=O)c2cc(-c3cn(C)cn3)cc(Cl)c2F)cc1` [Compound I-377], for which the IC50 is 10 to 50 µM in assay [1], 10 to 50 µM in assay [2], less than 10 µM in assay [3] and 10 to 50 µM in assay [4].

For the compound `Cn1cnc(-c2cc(Cl)c(F)c(C(=O)NNS(=O)(=O)c3c(F)cccc3F)c2)c1` [Compound I-378], the IC50 in assay [1] is less than 10 µM; in assay [2], less than 10 µM; in assay [3], less than 10 µM; in assay [4] it was 10 to 50 µM.

Turning to `CC(=O)Nc1ccc(S(=O)(=O)NNC(=O)c2cc(-c3cn(C)cn3)cc(Cl)c2F)cc1` [Compound I-379], the IC50 is 10 to 50 µM in assay [1], 10 to 50 µM in assay [2], less than 10 µM in assay [3] and 10 to 50 µM in assay [4].

As for `CCOc1ccc(S(=O)(=O)NNC(=O)c2cc(-c3cn(C)cn3)cc(Cl)c2F)cc1` [Compound I-380], the half-maximal inhibitory concentration (IC50) was less than 10 µM in assay [1], less than 10 µM in assay [2], less than 10 µM in assay [3] and 10 to 50 µM in assay [4].

Take `Cn1cnc(-c2cc(Cl)c(F)c(C(=O)NNS(=O)(=O)c3ccc(=O)[nH]c3)c2)c1` [Compound I-381]: the IC50 was 10 to 50 µM in assay [1], less than 10 µM in assay [2], less than 10 µM in assay [3] and 10 to 50 µM in assay [4].

`CNc1ccc(S(=O)(=O)NNC(=O)c2cc(-c3cn(C)cn3)cc(Cl)c2F)cc1` [Compound I-382]: the IC50 in assay [1] is 10 to 50 µM; in assay [2], less than 10 µM; in assay [3], less than 10 µM; in assay [4], greater than 100 µM.

Turning to `Cn1cnc(-c2cc(Cl)c(F)c(C(=O)NNS(=O)(=O)CC3CCc4ccccc4C3)c2)c1` (stereo not drawn) [Compound I-383], the IC50 in assay [1] was less than 10 µM; in assay [2], less than 10 µM; in assay [3], less than 10 µM; in assay [4], 10 to 50 µM.

Take `Cn1cnc(-c2cc(Cl)c(F)c(C(=O)NNS(=O)(=O)CC3CCCCC3O)c2)c1` (stereo not drawn) [Compound I-384]: the IC50 in assay [1] was less than 10 µM; in assay [2], 10 to 50 µM; in assay [3], less than 10 µM; in assay [4] it was 50 to 100 µM.

`CNc1ccccc1S(=O)(=O)NNC(=O)c1cc(-c2cn(C)cn2)cc(Cl)c1F` [Compound I-385]: the IC50 in assay [1] was less than 10 µM; in assay [2], less than 10 µM; in assay [3] it was less than 10 µM; in assay [4], greater than 100 µM.

`COC1CCC(CS(=O)(=O)NNC(=O)c2cc(-c3cn(C)cn3)cc(Cl)c2F)C1` (stereo not drawn) [Compound I-387]: the IC50 was less than 10 µM in assay [1], less than 10 µM in assay [2], less than 10 µM in assay [3] and 50 to 100 µM in assay [4].

With `Cn1cnc(-c2cc(Cl)c(F)c(C(=O)NNS(=O)(=O)C[C@H]3CCCO3)c2)c1` [Compound I-388], the IC50 was less than 10 µM in assay [1], less than 10 µM in assay [2], less than 10 µM in assay [3] and greater than 100 µM in assay [4].

With `Cn1cnc(-c2cc(Cl)c(F)c(C(=O)NNS(=O)(=O)C[C@@H]3CCCO3)c2)c1` [Compound I-389], the IC50 in assay [1] is less than 10 µM; in assay [2], less than 10 µM; in assay [3] it was less than 10 µM; in assay [4], greater than 100 µM.

Regarding `Cc1cc(-c2ccccc2)cc(C(=O)NNS(=O)(=O)CC2CCCNC2)c1F` (stereo not drawn) [D, reference compound], the IC50 in assay [1] (Table 6, comparative compounds) was 10 to 50 µM; in assay [2] (Table 6, comparative compounds), greater than 100 µM; in assay [3] (Table 6, comparative compounds), greater than 100 µM; in assay [4] (Table 6, comparative compounds), greater than 100 µM.
